Reference: PubChem BioAssay AID192 (DTP/NCI, 2004)
Values joined by “and” are separate entries in the source; they are usually repeats but may differ in a detail not shown here. Identical values can stand only once. Toxic doses and inconclusive results are not listed. Rule for the calls: active = survival T/C of 150% or more; inactive = T/C below 125% in these data. Square brackets hold non-standard residues; d marks the D form. Peptide text beside a SMILES is read from it. * marks the point of attachment. ξ: configuration not given here. Ac5c = NC1(C(=O)O)CCCC1; Nle = CCCC[CH](N)C(=O)O; Cbz = O=C(OCc1ccccc1)*; ξV = CC(C)C(N)C(=O)O; ξS = NC(CO)C(=O)O

Test system: BDF1 mice, B16 melanoma ip, median survival T/C
Experiment: NCI In Vivo Anticancer Drug Screen. Data for tumor model B16 Melanoma (intraperitoneal) in B6D2F1 (BDF1) mice
Settings: endpoint: median survival time, higher = longer survival
Procedure, shortened: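 The ratio T/C compares compound-treated mice with vehicle-treated controls, using survival or tumor size as the endpoint in a transplantable tumor model.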

[1] = dose: 25.0 mg/kg/injection, schedule: Q01DX009 (ip), vehicle: saline with Tween-80
[2] = dose: 50.0 mg/kg/injection, schedule: Q01DX009 (ip), vehicle: saline with Tween-80
[3] = dose: 100.0 mg/kg/injection, schedule: Q01DX009 (ip), vehicle: saline with Tween-80
[4] = dose: 400.0 mg/kg/injection, schedule: Q01DX009 (ip), vehicle: saline with Tween-80
[5] = dose: 200.0 mg/kg/injection, schedule: Q01DX009 (ip), vehicle: saline with Tween-80
[6] = dose: 50.0 mg/kg/injection, schedule: Q01DX009 (ip), vehicle: saline
[7] = dose: 100.0 mg/kg/injection, schedule: Q01DX009 (ip), vehicle: saline
[8] = dose: 200.0 mg/kg/injection, schedule: Q01DX009 (ip), vehicle: saline
[9] = dose: 100.0 mg/kg/injection, schedule: Q01DX009 (ip), vehicle: Klucel (hydroxypropylcellulose) (HPC)
[10] = dose: 200.0 mg/kg/injection, schedule: Q01DX009 (ip), vehicle: Klucel (hydroxypropylcellulose) (HPC)
[11] = dose: 400.0 mg/kg/injection, schedule: Q01DX009 (ip), vehicle: Klucel (hydroxypropylcellulose) (HPC)
[12] = dose: 100.0 mg/kg/injection, schedule: Q01DX009 (ip), vehicle: other

Measured: T/C

CCC(C)C(NC(=O)c1ccccc1)C(=O)O (centres undefined)
inactive: dose: 6.25 mg/kg/injection, schedule: Q01DX009 (ip), vehicle: saline with Tween-80 100 % of control | dose: 12.5 mg/kg/injection, schedule: Q01DX009 (ip), vehicle: saline with Tween-80 101 % of control | [1] 95 % of control | [2] 90 % of control and 94 % of control

CC(C)CC(Br)C(=O)NC(CC(C)C)C(=O)O (centres undefined)
inactive: [1] 95 % of control | [2] 100 % of control | [3] 95 % of control and 100 % of control | [4] 108 % of control

CC/C(C)=C(/C(=O)O)c1ccccc1
inactive: [3] 110 % of control | [5] 94 % of control

O=C(O)c1ccc(S(=O)(=O)O)cc1C(=O)O
inactive: [6] 92 % of control | [7] 96 % of control | [8] 98 % of control

COc1ccc([I+]c2ccccc2)cc1
inactive: dose: 0.75 mg/kg/injection, schedule: Q01DX009 (ip), vehicle: saline with Tween-80 95 % of control | dose: 1.5 mg/kg/injection, schedule: Q01DX009 (ip), vehicle: saline with Tween-80 97 % of control | dose: 3.0 mg/kg/injection, schedule: Q01DX009 (ip), vehicle: saline with Tween-80 102 % of control | dose: 6.0 mg/kg/injection, schedule: Q01DX009 (ip), vehicle: saline with Tween-80 93 % of control

COc1ccc2nc3ccccc3c(NCCNCCO)c2c1
inactive: dose: 10.0 mg/kg/injection, schedule: Q01DX009 (ip), vehicle: saline 123 % of control

CC(=O)c1c(O)c(C)c(O)c2c1OC1=CC(=O)C(C(C)=O)C(=O)C12C (centres undefined)
inactive: dose: 5.0 mg/kg/injection, schedule: Q01DX009 (ip), vehicle: gum acacia 107 % of control | dose: 6.25 mg/kg/injection, schedule: Q01DX009 (ip), vehicle: gum acacia 92 % of control | dose: 12.5 mg/kg/injection, schedule: Q01DX009 (ip), vehicle: gum acacia 108 % of control | dose: 20.0 mg/kg/injection, schedule: Q01DX009 (ip), vehicle: gum acacia 100 % of control | dose: 40.0 mg/kg/injection, schedule: Q01DX009 (ip), vehicle: gum acacia 102 % of control | dose: 50.0 mg/kg/injection, schedule: Q01DX009 (ip), vehicle: gum acacia 108 % of control | dose: 80.0 mg/kg/injection, schedule: Q01DX009 (ip), vehicle: gum acacia 105 % of control | dose: 100.0 mg/kg/injection, schedule: Q01DX009 (ip), vehicle: gum acacia 97 % of control

O=C(C=C(C(F)(F)Cl)C(F)(F)Cl)c1cccs1
inactive: dose: 0.31 mg/kg/injection, schedule: Q01DX009 (ip), vehicle: saline 97 % of control | dose: 0.62 mg/kg/injection, schedule: Q01DX009 (ip), vehicle: saline 92 % of control | dose: 2.5 mg/kg/injection, schedule: Q04DX003 (ip), vehicle: saline 97 % of control | dose: 5.0 mg/kg/injection, schedule: Q04DX003 (ip), vehicle: saline 105 % of control | dose: 10.0 mg/kg/injection, schedule: Q04DX003 (ip), vehicle: saline 90 % of control

Cc1cccc(NC(=O)c2ccccc2C(=O)O)c1C
inactive: [9] 94 % of control | [10] 94 % of control | [11] 97 % of control

CC(C)(c1ccccc1)c1ccc(O)cc1
inactive: dose: 37.5 mg/kg/injection, schedule: Q01DX009 (ip), vehicle: other 97 % of control | dose: 75.0 mg/kg/injection, schedule: Q01DX009 (ip), vehicle: other 100 % of control | dose: 150.0 mg/kg/injection, schedule: Q01DX009 (ip), vehicle: other 94 % of control | dose: 150.0 mg/kg/injection, schedule: Q04DX003 (ip), vehicle: saline + alcohol 90 % of control | dose: 300.0 mg/kg/injection, schedule: Q01DX009 (ip), vehicle: other 94 % of control | dose: 300.0 mg/kg/injection, schedule: Q04DX003 (ip), vehicle: saline + alcohol 104 % of control | dose: 600.0 mg/kg/injection, schedule: Q04DX003 (ip), vehicle: saline + alcohol 95 % of control

CN(C)CCC#N
inactive: [6] 113 % of control and 122 % of control | [7] 110 % of control and 113 % of control | [8] 105 % of control and 122 % of control

CC(=O)c1cccc(NC(=O)Nc2ccccc2)c1
inactive: [9] 96 % of control | [10] 91 % of control | [11] 96 % of control

Cc1ccc(C(=N)c2ccccc2Cc2cccc3ccccc23)c(C)c1
inactive: [2] 88 % of control

CCCCCCCCCC(=O)CCCC
inactive: [12] 94 % of control | dose: 200.0 mg/kg/injection, schedule: Q01DX009 (ip), vehicle: other 92 % of control

NNC(=O)c1ccc(-c2ccccc2)cc1
inactive: dose: 12.5 mg/kg/injection, schedule: Q01DX009 (ip), vehicle: other 93 % of control | dose: 25.0 mg/kg/injection, schedule: Q01DX009 (ip), vehicle: other 95 % of control | dose: 50.0 mg/kg/injection, schedule: Q01DX009 (ip), vehicle: other 100 % of control | [12] 100 % of control

CCOc1ccccc1NC(=O)COc1ccc(Cl)cc1
inactive: [9] 106 % of control | [10] 96 % of control | [11] 100 % of control

CC1OC(n2ccc(NC(=O)c3ccc(NC(=O)C(C)(N)CO)cc3)nc2=O)CC(O)C1OC1OC(C)C(N(C)C)C(O)C1O (centres undefined)
inactive: dose: 2.5 mg/kg/injection, schedule: Q01DX009 (ip), vehicle: Klucel (hydroxypropylcellulose) (HPC) 117 % of control | dose: 5.0 mg/kg/injection, schedule: Q01DX009 (ip), vehicle: Klucel (hydroxypropylcellulose) (HPC) 102 % of control | dose: 10.0 mg/kg/injection, schedule: Q01DX009 (ip), vehicle: Klucel (hydroxypropylcellulose) (HPC) 103 % of control

[Cu+2].[NH-]C(CC(=O)O)C(=O)O.[NH-]C(CC(=O)O)C(=O)O (centres undefined)
inactive: dose: 4.68 mg/kg/injection, schedule: Q01DX009 (ip), vehicle: saline 98 % of control | dose: 9.37 mg/kg/injection, schedule: Q01DX009 (ip), vehicle: saline 101 % of control

Cc1noc2c1ncc[n+]2[O-]
inactive: dose: 5.0 mg/kg/injection, schedule: Q01DX009 (ip), vehicle: saline with Tween-80 108 % of control | dose: 10.0 mg/kg/injection, schedule: Q01DX009 (ip), vehicle: saline with Tween-80 119 % of control | dose: 20.0 mg/kg/injection, schedule: Q01DX009 (ip), vehicle: saline with Tween-80 116 % of control

C/C(=N/N=C(N)N)c1ccc(NC(=O)Nc2ccc(/C(C)=N/N=C(N)N)cc2)cc1
inactive: dose: 25.0 mg/kg/injection, schedule: Q01DX009 (ip), vehicle: Klucel (hydroxypropylcellulose) (HPC) 99 % of control | dose: 50.0 mg/kg/injection, schedule: Q01DX009 (ip), vehicle: Klucel (hydroxypropylcellulose) (HPC) 121 % of control | [10] 120 % of control

NC(CO)C(=O)NC1(C(=O)O)CCCC1 (centres undefined) (H-[ξS]-[Ac5c]-OH)
inactive: dose: 100.0 mg/kg/injection, schedule: Q04DX003 (ip), vehicle: saline with Tween-80 123 % of control | dose: 133.0 mg/kg/injection, schedule: Q04DX003 (ip), vehicle: saline with Tween-80 122 % of control | dose: 300.0 mg/kg/injection, schedule: Q04DX003 (ip), vehicle: saline with Tween-80 117 % of control | dose: 400.0 mg/kg/injection, schedule: Q04DX003 (ip), vehicle: saline with Tween-80 100 % of control

CC(C)C(NC(=O)CN)C(=O)O (centres undefined) (H-Gly-[ξV]-OH)
inactive: [7] 102 % of control | dose: 100.0 mg/kg/injection, schedule: Q04DX003 (ip), vehicle: saline 102 % of control | [8] 100 % of control | dose: 200.0 mg/kg/injection, schedule: Q04DX003 (ip), vehicle: saline 97 % of control | dose: 400.0 mg/kg/injection, schedule: Q01DX009 (ip), vehicle: saline 90 % of control | dose: 400.0 mg/kg/injection, schedule: Q04DX003 (ip), vehicle: saline 95 % of control

CCOc1ccc(NC(=O)C(C)O)cc1 (centres undefined)
inactive: [3] 97 % of control | [5] 97 % of control | [4] 91 % of control

C[C@@H]1O[C@@H](O[C@H]2CC[C@]3(C=O)[C@H]4CC[C@]5(C)[C@@H](c6ccc(=O)oc6)CC[C@]5(O)[C@@H]4CC[C@]3(O)C2)[C@H](O)[C@H](O)[C@H]1O[C@@H]1O[C@H](CO)[C@@H](O)[C@H](O)[C@H]1O
inactive: dose: 0.63 mg/kg/injection, schedule: Q01DX009 (ip), vehicle: saline 102 % of control | dose: 1.25 mg/kg/injection, schedule: Q01DX009 (ip), vehicle: saline 92 % of control | dose: 2.5 mg/kg/injection, schedule: Q01DX009 (ip), vehicle: saline 90 % of control

CCCCC(NC(=O)C(Cc1ccccc1)NC(=O)OCc1ccccc1)C(=O)O (stereo not drawn) (Cbz-Phe-[Nle]-OH; configuration not given here)
inactive: [2] 92 % of control | [3] 100 % of control

CN(C)C=Nc1ccccc1
inactive: [9] 100 % of control | [10] 112 % of control | [11] 109 % of control
